One substance from patent US20160193148A1, “LIPOSOMAL FORMULATIONS FOR THE TREATMENT OF BACTERIAL INFECTIONS” (UNIVERSITY OF GEORGIA RESEARCH FOUNDATION, INC., priority 2013, published 2016) can be followed below.

Data set [1] is described as follows: PELF gentamicin concentrations after single IV or nebulized dose in foals. On the procedure:
Eight healthy 5-7-week-old Quarter Horse foals were randomly assigned to one of 4 groups using a balanced Latin-square design. Foals were considered healthy on the basis of physical examinations, complete blood cell counts and plasma biochemical profiles. […] The liposome gentamicin formulation was nebulized using Nortev FLEXINEB. For each treatment, gentamicin was administered over a period of 15 minutes. There was a washout period of 7-14 days between each treatment.
For the BAL collection, foals were sedated with xylazine and butorphanol. Concentrations of gentamicin were measured in plasma and in bronchoalveolar cells using HPLC-MS.
Eight foals received a single IV or nebulized dose (6.6 mg/kg bwt) of FG^h or LG in a balanced Latin square design. Beginning at 5-7 weeks of age, every foal received each of the 4 possible drug-route combinations with a 14-day washout period between each administration. Intravenous FG and LG were diluted in 250 ml of sterile 0.9% saline and administered via a jugular catheter as a constant rate infusion over 15 min. Nebulized FG and LG were administered by inhalation over 15 minutes via a commercial equine nebulizer. To ensure equivalent rate of delivery, FG was diluted to the same volume as LG with sterile 0.9% saline. Particle size of nebulized LG was verified using laser diffraction. Blood samples for plasma separation were obtained from a catheter placed in the contralateral jugular vein prior to each drug administration, and at 5, 10, 20, 30, 45 minutes and 1, 1.5, 2, 3, 4, 6, 8, 12, 16, 24 and 48 hours after the end of the 15 minute IV infusion or nebulization period. Bronchoalveolar lavage (BAL) fluid was collected at 2, 4, 8, 24, and 48 hours. Foals were sedated with xylazine hydrochloride (0.5 mg/kg bwt IV) and butorphanol tartrate (0.07 mg/kg bwt IV) prior to collection of BAL fluid. Prior to analysis for gentamicin concentration, blood samples were centrifuged at 400×g for 10 minutes and the resultant plasma frozen at −80° C. until assayed.
(§1) A 10 mm diameter, 2.4 m BAL catheter^k was passed via nasal approach until wedged into a bronchus. The lavage solution consisted of 4 aliquots of 60 ml 0.9% saline solution infused and instantly aspirated. Immediately upon collection, the total volume of BAL fluid recovered was measured and a 3 ml aliquot saved in an EDTA tube from which total nucleated cell count was determined by use of a cell counter.^1 BAL fluid was immediately centrifuged at 400×g for 10 min. The BAL cells in the resultant pellet were washed, re-suspended in 500 μl of acetonitrile: 0.2% formic acid (1:1, v/v), vortexed, and frozen at −80° C. until assayed. Supernatant BAL fluid was also frozen at −80° C. until assayed. Before assaying, the cell pellet samples were thawed, vortexed vigorously and sonicated for 10 minutes to ensure complete cell lysis. The resulting suspension was centrifuged at 500×g for 10 minutes and the supernatant fluid was used to determine the intracellular concentrations of gentamicin.
(§2) Briefly, gentamicin was extracted from plasma (250 μl) and urine (500 μl) using protein precipitation with an equal volume of ice-cold 90:10 acetonitrile: 0.2% formic acid (v/v). Extracted samples were centrifuged (2° C. at 10,000×g for 10 min) twice. Two-hundred microliters of the supernatants were transferred to polypropylene inserts for injection. The supernatant derived from the lyzed BAL cell pellet was transferred to polypropylene inserts for direct injection without further processing. […] An aliquot of the resultant supernatant was then mixed with an equal volume of ice-cold acetonitrile, centrifuged (2° C. at 10,000×g for 10 minutes) and 200 μl was transferred to polypropylene inserts for injection. Calibration standards were prepared in drug-free foal plasma, BAL fluid or urine and then extracted as described above so that standard curves specific to each biologic matrix could be constructed.

Data set [2] can be described thus: Repeated dose IV LG or FG: gentamicin in plasma, BAL cells and urine of foals. On the procedure:
Each dose was diluted in 250 ml of sterile 0.9% saline and administered over 15 minutes via an indwelling 14 G catheter placed in a jugular vein. Blood samples for plasma separation and measurement of gentamicin concentrations were obtained on day 1 and on day 7 at the times listed for study 1. Bronchoalveolar lavage fluid was collected 2, 6 and 24 hours after the end of infusion on day 7. Urine was collected the day prior to the first drug dose (day 0) and again 2 hours after the end of the infusion on days 3 and 7. Foals were sedated with xylazine hydrochloride (1.1 mg/kg bwt IV) and anesthetized with ketamine (2.2 mg/kg bwt IV) to allow passage of a urinary catheter using aseptic techniques. Urinalysis was performed and urine and concurrently obtained plasma samples were submitted for measurement of creatinine, γ-glutamyltransferase (GGT), protein, calcium, chloride, magnesium, sodium, and potassium concentrations. Fractional excretion of electrolytes, urinary GGT to creatinine ratio, and urinary protein to creatinine ratios were calculated. Prior to analysis for gentamicin concentration by LC-MS, urine and plasma samples were centrifuged at 400×g for 10 minutes and the supernatant was frozen at −80° C. until assayed.
as §1
as §2, with “constructed. […] Analyte separation and LC-MS/MS measurement of gentamicin were performed exactly as described previously (Burton et al. (2013) Equine Vet J. 45, 507-511) except that BAL fluid samples, were introduced in the MS with a flow rate of 0.18 ml/minutes and a total run time of 8 minutes due to relatively low gentamicin concentration in those samples.” for “constructed.”
Estimation of the volume of PELF was determined by urea dilution method (Rennardet al. (1986) J. Appl. Physiol 60, 532-538).

Where [3] appears, read: 6.6 mg/kg IV q 24 h, 7 doses, day 7.

Marks after values point to notes of the source that are not given here.

By Cmax is commonly meant the maximum level reached in the sampled fluid or tissue. Turning to gentamicin sulfate [Free Gentamicin], in data set [1] (IV), the AUC0-t is 44.66 ± 20.96^a μg · h/ml; the C24 h amounted to 840 ± 640 ng/mL; the “Tmax (median and range)” value was 6 (4-8) h. Also, in data set [1] (IV, Table 2), the AUC0-24 is 44800 ± 21000 ng·h/mL, the C48 h is 840 ± 640 ng/mL and the Cmax is 4.6 ± 1.9 µg/mL. The Cmax in data set [1] (IV, Table 5) was 4.64 ± 1.99^a μg/ml. In data set [1] (N (nebulized), Table 2), the AUC0-24 was 41000 ± 15800 ng·h/mL, the C48 h was 350 ± 340 ng/mL and the Cmax worked out at 13.0 ± 6.7 µg/mL. Moreover, in data set [1] (Neb), the AUC0-t is reported as 40.97 ± 15.81^a μg · h/ml; the C24 h came to 350 ± 340 ng/mL; the “Tmax (median and range)” value is recorded as 2 (2-2) h. In addition, the Cmax in data set [1] (Neb, Table 5) is recorded as 13.02 ± 6.70^c μg/ml. For the same substance, in data set [2] (setting [3]), the “AUC0-t in BAL cells” value was 104800 ± 35100 ng·h/mL, the “Cmax in BAL cells” value is 6700 ± 1900 ng/mL and the “Concentration in BAL cells at 24 hours” value was 3500 ± 1800 ng/mL. In data set [2] (6.6 mg/kg IV q 24 h, 7 doses, day 7, range 2-24 hours), the “Tmax in BAL cells (median)” value was 6 h. This substance also showed a Urine gentamicin in data set [2] (Day 3) of 94.8 ± 47.5 µg/mL. Moreover, the Urine gentamicin in data set [2] (Day 7) was determined as 87.5 ± 5 µg/mL. The “accumulation in plasma over 1 week of daily administration” value in data set [2] (day 1 vs day 7 plasma pharmacokinetic variables) is given as “no accumulation”.
